From patent US7276339B2 (H. Lundbeck A/S, priority 1998, dated 2007)
Entries after “also recorded” stand apart in the source; their conditions may differ. Non-standard residues stand in square brackets, D forms with d. Residues, ends and D or L forms follow the SMILES beside them. No end group written: not given here. NMeF = CN[C@@H](Cc1ccccc1)C(=O)O

Assays:
[1] = target: T1, rat NPFF2 receptor (Rattus norvegicus, UniProt Q9EQD2); test: [125I]D-Tyr-NPFF radioligand binding, cloned rat NPFF2; conditions: for Ki: read-out: pKi ± SEM, rat NPFF2 (converted)
T1 construct: The full-length rat NPFF2 clone was amplified from rat spinal cord cDNA; expressed in transfected cells; host or cells: COS-7
T1 sequence (Q9EQD2 whole entry): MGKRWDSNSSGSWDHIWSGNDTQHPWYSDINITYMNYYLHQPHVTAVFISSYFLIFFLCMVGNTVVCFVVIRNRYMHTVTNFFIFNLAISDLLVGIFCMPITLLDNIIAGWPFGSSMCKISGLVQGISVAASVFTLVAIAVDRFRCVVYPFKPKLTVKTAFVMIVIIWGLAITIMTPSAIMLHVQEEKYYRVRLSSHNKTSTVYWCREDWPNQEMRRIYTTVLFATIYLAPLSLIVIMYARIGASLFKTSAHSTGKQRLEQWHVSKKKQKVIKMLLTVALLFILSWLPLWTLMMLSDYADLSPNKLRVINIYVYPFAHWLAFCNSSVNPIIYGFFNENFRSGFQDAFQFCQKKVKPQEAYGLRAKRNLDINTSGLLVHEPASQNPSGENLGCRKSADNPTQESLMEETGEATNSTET
Procedure: (§1) Transfected cells from culture flasks are scraped into 5 ml of 20 mM Tris-HCl, 5 mM EDTA, pH 7.5, and lysed by sonication. The cell lysates are centrifuged at 1000 rpm for 5 min. at 4° C., and the supernatant is centrifuged at 30,000×g for 20 min. at 4° C. The pellet is suspended in binding buffer (50 mM Tris-HCl, 60 mM NaCl, 1 mM MgCl, 33 μM EDTA, 33 μM EGTA at pH 7.4 supplemented with 0.2% BSA, 2 μg/ml aprotinin, and 20 μM bestatin). Optimal membrane suspension dilutions, defined as the protein concentration required to bind less than 10% of the added radioligand, are added to 96-well polpropylene microtiter plates containing ^3H-labeled compound, unlabeled compounds, and binding buffer to a final volume of 250 μl. In equilibrium saturation binding assays membrane preparations are incubated in the presence of increasing concentrations of [^3H]-labeled compound. The binding affinities of the different compounds are determined in equilibrium competition binding assays, using [^125I]-labeled compound in the presence of ten to twelve different concentrations of the displacing ligands. Competition assay: 50 pM radioligand, 10-12 points. Binding reaction mixtures are incubated for 2 hr at 25° C., and the reaction stopped by filtration through a double layer of GF filters treated with 0.1% polyethyleneimine, using a cell harvester. Wash buffer: 50 mM Tris-HCl, 0.1% BSA. Radioactivity may be measured by scintillation counting and data are analyzed by a computerized non-linear regression program. Non-specific binding is defined as the amount of radioactivity remaining after incubation of membrane protein in the presence of 1 μM final concentration […]. Protein concentration may be measured by the Bradford method using Bio-Rad Reagent, with bovine serum albumin as a standard.
(§2) Additional pharmacological evaluation was done using 293 human embryonic kidney cells (HEK-293 cells) transiently expressing the genes encoding the human NPFF1, NPFF2, and rat NPFF1 receptors, as well as Cos-7 cells expressing the rat NPFF2 receptors.

[2] = target: T2, human NPFF2 receptor (Homo sapiens, UniProt Q9Y5X5); test: [125I]D-Tyr-NPFF radioligand binding, HEK-293 cells expressing human NPFF2; conditions: for Ki: read-out: pKi ± SEM, human NPFF2 (converted)
T2 construct: BO89, was determined to be a full length clone with no point mutations; expressed in transfected cells; host or cells: HEK-293 (transient)
T2 sequence (Q9Y5X5 103-522): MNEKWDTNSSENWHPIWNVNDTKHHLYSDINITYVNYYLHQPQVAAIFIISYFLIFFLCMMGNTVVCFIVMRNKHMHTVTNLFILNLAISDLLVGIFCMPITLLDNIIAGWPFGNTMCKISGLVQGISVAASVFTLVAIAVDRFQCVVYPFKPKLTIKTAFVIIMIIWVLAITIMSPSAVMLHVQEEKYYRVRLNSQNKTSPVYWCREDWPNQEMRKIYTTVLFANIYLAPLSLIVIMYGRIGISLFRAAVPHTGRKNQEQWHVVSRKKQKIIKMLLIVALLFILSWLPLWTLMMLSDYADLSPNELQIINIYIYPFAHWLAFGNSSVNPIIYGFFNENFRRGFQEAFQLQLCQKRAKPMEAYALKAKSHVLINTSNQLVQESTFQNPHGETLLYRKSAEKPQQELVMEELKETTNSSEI
Procedure: as §1, §2

[3] = target: T3, rat NPFF1 receptor (Rattus norvegicus, UniProt Q9EP86); test: [125I]D-Tyr-NPFF radioligand binding, HEK-293 cells expressing rat NPFF1; parameters: expressed in transfected cells; conditions: for Ki: Table 3, read-out: pKi ± SEM, rat NPFF1 (converted)
T3 sequence (Q9EP86 whole entry): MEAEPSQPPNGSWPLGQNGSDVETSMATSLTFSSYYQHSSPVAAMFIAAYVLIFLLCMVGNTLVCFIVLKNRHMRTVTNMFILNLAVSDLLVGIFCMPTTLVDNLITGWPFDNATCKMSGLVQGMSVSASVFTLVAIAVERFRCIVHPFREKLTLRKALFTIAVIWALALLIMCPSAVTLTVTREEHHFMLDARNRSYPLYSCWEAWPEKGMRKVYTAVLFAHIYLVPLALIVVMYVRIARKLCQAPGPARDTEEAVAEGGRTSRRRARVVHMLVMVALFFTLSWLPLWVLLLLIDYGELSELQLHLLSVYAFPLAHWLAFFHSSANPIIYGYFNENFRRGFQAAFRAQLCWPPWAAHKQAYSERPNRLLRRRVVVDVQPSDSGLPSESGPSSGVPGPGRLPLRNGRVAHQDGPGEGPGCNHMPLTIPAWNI
Procedure: as §1, §2

[4] = target: T4, human NPFF1 receptor (Homo sapiens, UniProt Q9GZQ6); test: [125I]D-Tyr-NPFF radioligand binding, HEK-293 cells expressing human NPFF1; conditions: for Ki: Table 3, read-out: pKi ± SEM, human NPFF1 (converted)
T4 construct: To obtain a full-length hNPFF1 construct in the correct orientation; expressed in transfected cells; host or cells: HEK-293 (transient)
T4 sequence (Q9GZQ6 whole entry): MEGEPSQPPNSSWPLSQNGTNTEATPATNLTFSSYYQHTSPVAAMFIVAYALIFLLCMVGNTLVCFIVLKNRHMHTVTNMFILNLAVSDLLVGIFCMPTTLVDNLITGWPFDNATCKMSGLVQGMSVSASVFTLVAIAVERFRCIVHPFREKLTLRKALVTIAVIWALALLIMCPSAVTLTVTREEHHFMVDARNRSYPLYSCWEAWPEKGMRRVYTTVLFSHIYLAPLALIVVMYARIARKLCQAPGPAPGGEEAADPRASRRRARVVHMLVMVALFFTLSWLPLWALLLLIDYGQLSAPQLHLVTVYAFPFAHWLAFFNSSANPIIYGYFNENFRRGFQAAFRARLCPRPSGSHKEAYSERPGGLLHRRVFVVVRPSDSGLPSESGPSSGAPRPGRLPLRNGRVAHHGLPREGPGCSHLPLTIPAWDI
Procedure: as §1, §2

[5] = system: anesthetized rats; test: Distension-induced rhythmic contraction (DIRC) model of the micturition reflex in anesthetized rats; type: in vivo, rat; conditions: i.v.
Procedure: The effects of compounds on the micturition reflex were assessed in the “distension-induced rhythmic contraction” (DIRC) model in rats. This model of the micturition reflex has been described in previous publications (e.g. 72, 73).
Female Sprague Dawley rats weighing approximately 300 g were anesthetized with subcutaneous urethane (1.2 g/kg). The trachea was cannulated with PE240 tubing to provide a clear airway throughout the experiment. A midline abdominal incision was made and the left and right ureters were isolated. The ureters were ligated distally (to prevent escape of fluids from the bladder) and cannulated proximally with PE10 tubing. The incision was closed using 4-0 silk sutures, leaving the PE10 lines routed to the exterior for the elimination of urine. The bladder was canulated via the transurethral route using PE50 tubing inserted 2.5 cm beyond the urethral opening. This cannula was secured to the tail using tape and connected to a pressure transducer. To prevent leakage from the bladder, the cannula was tied tightly to the exterior urethral opening using 4-0 silk.
To initiate the micturition reflex, the bladder was first emptied by applying pressure to the lower abdomen, and then filled with normal saline in 100 μl increments (maximum=2 ml) until spontaneous bladder contractions occurred (typically 20-40 mmHg at a rate of one contraction every 2 to 3 minutes. Once a regular rhythm was established, vehicle (saline) or test compounds were administered intravenously to examine their effects on bladder activity. The effect of a compound which inhibited the micturition reflex was expressed as its “disappearance time”, defined as the time between successive bladder contractions in the presence of the test compound minus the time between contractions before compound administration.

[6] = target: rat spinal cord membrane receptor; test: [125I]D-Tyr-NPFF radioligand binding, rat spinal cord membranes; conditions: competition of [125I]D-Tyr-NPFF binding; * = differs from NPFF1
Excerpt: The binding profile of rat NPFF1 was compared to that of rat spinal cord membranes. […] (See * Table 2).

[7] = target: T3, rat NPFF1 receptor; test: [125I]D-Tyr-NPFF radioligand binding, membranes of COS-7 cells transiently expressing cloned rat NPFF1; parameters: expressed in transfected cells; host or cells: COS-7 (transient)
Procedure: as §1, with “The pellet is suspended in binding buffer (50 mM Tris-HCl, 60 mM NaCl, 1 mM MgCl, 33 μM EDTA, 33 μM EGTA at pH 7.4 supplemented with 0.2% BSA, 2 μg/ml aprotinin, and 20 μM bestatin).” left out, “[…],” for “are added to 96-well polpropylene microtiter plates containing ^3H-labeled compound,”, “The binding affinities of the different compounds are determined in equilibrium competition binding assays, using [^125I]-labeled compound in the presence of ten to twelve different concentrations of the displacing ligands.” left out
Cos-7 cells transiently expressing the gene encoding the novel rat NPFF1 receptor were used for pharmacological evaluation.

[8] = target: T5, NPFF2 (NPFF-like) (Homo sapiens, UniProt Q9Y5X5); test: Voltage-clamp electrophysiology, Xenopus oocytes injected with NPFF-like (NPFF2) and chimeric Gαq/z RNA; type: cell-based; conditions: 1 μM, holding potential −80 mV
T5 construct: linearized plasmids or PCR products containing the complete coding region of the genes; expressed in transfected cells; host or cells: Xenopus laevis oocytes injected with mRNA from ligation PCR products or linearized BO89
T5 sequence (Q9Y5X5 103-522): as the sequence (Q9Y5X5 103-522) above
Procedure: For expression of NPFF2, mRNA transcripts were generated as described for NPFF1, using PCR products from ligation reactions or linearized DNA from BO89 as DNA templates. Oocytes were injected with 5-50 ng NPFF2 mRNA and incubated as previously described.
(§3) Oocytes were harvested from Xenopus laevis and injected with mRNA transcripts as previously described (Quick and Lester, 1994; Smith et al., 1997). […] Three to eight hours prior to recording, oocytes were injected with 500 pg Gαq/z mRNA in order to observe coupling to Ca^++ activated Cl^− currents. Dual electrode voltage clamp (Axon Instruments Inc.) was performed using 3 M KCl-filled glass microelectrodes having resistances of 1-2 Mohm. Unless otherwise specified, oocytes were voltage clamped at a holding potential of −80 mV. During recordings, oocytes were bathed in continuously flowing (1-3 ml/min) medium containing 96 mM NaCl, 2 mM KCl, 1.8 mM CaCl2, 1 mM MgCl2, and 5 mM HEPES, pH 7.5 (ND96). Drugs were applied either by local perfusion from a […] glass capillary tube fixed at a distance of 0.5 mm from the oocyte, or by switching from a series of gravity fed perfusion lines.
(§4) Heterologous expression of GPCRs in Xenopus oocytes has been widely used to determine the identity of signaling pathways activated by agonist stimulation (Gundersen et al., 1983; Takahashi et al., 1987). Activation of the phospholipase C (PLC) pathway is assayed by applying test compound in ND96 solution to oocytes previously injected with mRNA for the mammalian receptor and observing inward currents at a holding potential of −80 mV. The appearance of currents that reverse at −25 mV and display other properties of the Ca^++-activated Cl^− (chloride) channel is indicative of mammalian receptor-activation of PLC and release of IP3 and intracellular Ca^++.

[9] = system: NPFF receptors; conditions: cited from earlier work; for inhibition of [125I](1DMe)Y8Fa binding: 10 μM
[10] = target: T6, NPFF1 (SNORF2) (Rattus norvegicus, UniProt Q9EP86); test: Voltage-clamp electrophysiology, Xenopus oocytes injected with SNORF2 (NPFF1) and chimeric Gαq/z RNA; type: cell-based; conditions: 1 μM; oocytes with SNORF2 + Gαq/z; holding potential −80 mV
T6 construct: linearized plasmids or PCR products containing the complete coding region of the genes; expressed in transfected cells; host or cells: Xenopus laevis oocytes injected with synthetic RNA (T7 transcripts)
T6 sequence (Q9EP86 whole entry): as the sequence (Q9EP86 whole entry) above
Procedure: as §3, §4

[11] = system: normotensive rats; test: Blood pressure in anesthetized normotensive rats, intravenous administration; type: in vivo, rat; conditions: 0.3 mg/kg, 1 minute before the agonist
Excerpt: Rats were anesthetized with urethane and PE50 cannulae were placed in the femoral artery and vein for blood pressure monitoring and drug administration, respectively.

[12] = target: T3, rat NPFF1 receptor; test: Functional activity at cloned rat NPFF1 in COS-7 cells; type: cell-based; parameters: expressed in transfected cells; host or cells: COS-7 (transient); conditions: COS-7 cells
[13] = target: T1, rat NPFF2 receptor; test: Functional activity at cloned rat NPFF2 in COS-7 cells; type: cell-based
[14] = Table 3, title HEK-293 cells (text: Cos-7), [125I]D-Tyr-NPFF
[15] = Table 3, HEK-293 cells, [125I]D-Tyr-NPFF

CSCC[C@@H](NC(=O)[C@@H](N)Cc1ccccc1)C(=O)N[C@@H](CCCNC(=N)N)C(=O)N[C@@H](Cc1ccccc1)C(N)=O [D-Met-FMRF amide]
Ki [1, 14]: 0.631 µM
Ki [2, 15]: 0.398 µM
Ki [3]: 0.631 µM
Ki [4]: 0.251 µM

APSEPHHPGDQATQDQLAQYYSDLYQYITFVTRPRF-NH2 (C-terminus assumed) [fPP]
fold greater affinity for rat NPFF2 compared to rat NPFF1 ([1]; from competition binding pKi): 31 fold
effect on distension-induced rhythmic contractions of the bladder ([5]; fPP 0.1 mg/kg): inhibited
pKi for rat spinal cord membrane receptor binding, MEAN [6]: *9.118
fold greater affinity for human NPFF2 compared to human NPFF1 ([2]; from competition binding pKi): 77 fold
pKi for cloned rat NPFF1 receptor binding in COS-7 cells, MEAN ([7]; competition of [125I]D-Tyr-NPFF binding, COS-7 membranes): 5.5
displacement of [125I]D-Tyr-NPFF binding on the NPFF1 receptor ([7]; up to 1 uM): did not displace

neurokinin A
inward current response [8]: failed to activate; also recorded: no response

CN1CC[C@]23c4c5ccc(O)c4O[C@H]2[C@@H](O)C=C[C@H]3[C@H]1C5 [morphine]
inhibition of [125I](1DMe)Y8Fa binding [9]: No inhibition

NPY
inward current response [8]: failed to activate; also recorded: no response
inhibition of [125I](1DMe)Y8Fa binding [9]: No inhibition

H-AGEGLSSPFWSLAAPQRF-NH2 [A18Fa]
inward current response [10]: robust inward currents
Ki [1, 14]: 0.00631 µM
pKi for rat spinal cord membrane receptor binding, MEAN [6]: *9.000
Ki [2, 15]: 0.00126 µM
inward current response [8]: activated similar inward currents
Ki [3]: 0.0316 µM
Ki [4]: 0.0631 µM

CC(C)C[C@H](NC(=O)[C@H](N)Cc1ccc(O)cc1)C(=O)N(C)[C@@H](Cc1ccccc1)C(=O)N[C@@H](CCC(N)=O)C(=O)N1CCC[C@H]1C(=O)N[C@@H](CCC(N)=O)C(=O)N[C@@H](CCCNC(=N)N)C(=O)N[C@@H](Cc1ccccc1)C(N)=O [(D-Tyr^1-(NMe)Phe^3)NPFF] (H-[dY]L[NMeF]QPQRF-NH2; N-terminus assumed)
pKi for rat spinal cord membrane receptor binding, MEAN [6]: *9.724
Ki ([9]; spinal cord membranes, read-out: Ki, inhibition of [125I](1DMe)Y8Fa binding): 0.00016 µM

orexin A (QPLPDCCRQKTCSCRLYELLHGAGNHAAGILTL; ends and bridges not checked; cysteine pairing not given here; UniProt O43612 34-66, looked up)
inward current response [8]: failed to activate; also recorded: no response

CSCC[C@H](NC(=O)[C@H](CC(C)C)NC(=O)CNC(=O)[C@H](Cc1ccccc1)NC(=O)[C@H](Cc1ccccc1)NC(=O)[C@H](CCC(N)=O)NC(=O)[C@H](CCC(N)=O)NC(=O)[C@@H]1CCCN1C(=O)[C@H](CCCCN)NC(=O)[C@@H]1CCCN1C(=O)[C@@H](N)CCCN=C(N)N)C(N)=O [substance P]
inhibition of [125I](1DMe)Y8Fa binding [9]: No inhibition

NC(N)=NCCC[C@@H](NC(=O)C(c1ccccc1)c1ccccc1)C(=O)NCc1ccc(O)cc1 [BIBP 3226]
block of pressor response to fPP [11]: completely blocked
block of pressor response to pLeu,Pro-NPY [11]: completely blocked
reduction of pressor response to NPFF [11]: ~50%
pKi ± SEM, rat NPFF2 [1, 14]: 5.8±0.02
block of inhibitory effect of fPP on micturition ([5]; 0.3 mg/kg): not blocked
block of inhibitory response to NPFF on micturition ([5]; 0.3 mg/kg): did not block
pKi ± SEM, human NPFF2 [2, 15]: 5.9 ± 0.04
Maximum Effect (% NPFF), rat NPFF1 [12]: 0 % NPFF
EC50 ([12]; read-out: EC50, rat NPFF1): > 10 µM
pKi ± SEM, rat NPFF1 ([3]; Table 3): 7.6±0.04
EC50 [13]: 0.944 µM
Maximum Effect (% NPFF), rat NPFF2 [13]: 67 % NPFF
pKi ± SEM, human NPFF1 ([4]; Table 3): 6.9 ± 0.04
